Measurements as given in the NIST ThermoML archive (doi:10.1021/je2010209).
± gives the expanded uncertainty stated by the source.

Legend:
[1] = 101 kPa, Liquid; for speed of sound: Sing-around technique in a fixed-path interferometer; for mass density: Vibrating tube method
[2] = xn = mol fraction of the nth substance listed; settings: 101 kPa, Liquid, x1 = 1; for speed of sound: Sing-around technique in a fixed-path interferometer; for mass density: Vibrating tube method

SMILES	speed of sound ([1]; 288.15 K)	mass density ([1]; 288.15 K)	speed of sound ([1]; 293.15 K)	mass density ([1]; 293.15 K)	speed of sound ([1]; 298.15 K)	mass density ([1]; 298.15 K)	speed of sound ([1]; 303.15 K)	mass density ([1]; 303.15 K)	speed of sound ([1]; 308.15 K)	mass density ([1]; 308.15 K)	speed of sound ([1]; 313.15 K)	mass density ([1]; 313.15 K)	speed of sound ([1]; 318.15 K)	mass density ([1]; 318.15 K)	further results
CCCCn1cc[n+](C)c1.F[B-](F)(F)F [1-butyl-3-methylimidazolium tetrafluoroborate]	1589 ± 5 m/s	1206.51 ± 1.3 kg/m3	1577 ± 5 m/s	1202.95 ± 1.3 kg/m3	1565 ± 5 m/s	1199.39 ± 1.3 kg/m3	1554 ± 5 m/s	1195.82 ± 1.3 kg/m3	1542 ± 5 m/s	1192.27 ± 1.3 kg/m3	1531 ± 5 m/s	1188.72 ± 1.2 kg/m3	1520 ± 5 m/s	1185.17 ± 1.2 kg/m3	–
CCCCn1cc[n+](C)c1.F[B-](F)(F)F [1-butyl-3-methylimidazolium tetrafluoroborate] + COCCO	–	–	–	–	–	–	–	–	–	–	–	–	–	–	speed of sound ([2]; 288.15 K): 1589 ± 5 m/s; mass density ([2]; 288.15 K): 1206.51 ± 1.3 kg/m3; speed of sound ([2]; 293.15 K): 1577 ± 5 m/s; mass density ([2]; 293.15 K): 1202.95 ± 1.3 kg/m3; speed of sound ([2]; 298.15 K): 1565 ± 5 m/s; mass density ([2]; 298.15 K): 1199.39 ± 1.3 kg/m3; speed of sound ([2]; 303.15 K): 1554 ± 5 m/s; mass density ([2]; 303.15 K): 1195.82 ± 1.3 kg/m3; speed of sound ([2]; 308.15 K): 1542 ± 5 m/s; mass density ([2]; 308.15 K): 1192.27 ± 1.3 kg/m3; speed of sound ([2]; 313.15 K): 1531 ± 5 m/s; mass density ([2]; 313.15 K): 1188.72 ± 1.2 kg/m3; speed of sound ([2]; 318.15 K): 1520 ± 5 m/s; mass density ([2]; 318.15 K): 1185.17 ± 1.2 kg/m3
COCCOCCO [2-(2-methoxyethoxy)ethanol]	1451 ± 5 m/s	1024.6 ± 0.89 kg/m3	1434 ± 5 m/s	1020.2 ± 0.88 kg/m3	1416 ± 5 m/s	1015.79 ± 0.87 kg/m3	1399 ± 5 m/s	1011.36 ± 0.86 kg/m3	1382 ± 5 m/s	1006.92 ± 0.85 kg/m3	1366 ± 5 m/s	1002.47 ± 0.84 kg/m3	1349 ± 5 m/s	998.009 ± 0.83 kg/m3	–
COCCOCCOCCO [2-[2-(2-methoxyethoxy)ethoxy]ethanol]	1470 ± 5 m/s	1050.1 ± 2.1 kg/m3	1452 ± 5 m/s	1045.75 ± 2.1 kg/m3	1436 ± 5 m/s	1041.32 ± 2.1 kg/m3	1421 ± 5 m/s	1036.84 ± 2 kg/m3	1408 ± 5 m/s	1032.27 ± 2 kg/m3	1393 ± 5 m/s	1027.76 ± 2 kg/m3	1376 ± 5 m/s	1023.3 ± 2 kg/m3	–
COCCO [2-methoxyethan-1-ol]	1380 ± 5 m/s	969.794 ± 1.8 kg/m3	1367 ± 5 m/s	965.063 ± 1.8 kg/m3	1351 ± 5 m/s	960.447 ± 1.8 kg/m3	1337 ± 5 m/s	955.825 ± 1.7 kg/m3	1321 ± 5 m/s	951.214 ± 1.7 kg/m3	1304 ± 5 m/s	946.562 ± 1.7 kg/m3	1287 ± 5 m/s	941.864 ± 1.7 kg/m3	–
